Measured values taken from patent publication US10464929B2, “Organic molecules for terahertz tagging applications” (Council of Scientific & Industrial Research, priority 2014, dated 2019).

Experiment: Solubility of the THz molecular tags in various solvents
Assay type: physicochemical

| Solubility in THF (solvent THF (tetrahydrofuran)) | Solubility in Diethyl Ether (solvent Diethyl Ether) | Solubility in Toluene (solvent Toluene) | Structure (SMILES) |
| --- | --- | --- | --- |
| Turbid |  |  | O=C(NCCNC(=O)Nc1ccccc1)Nc1ccccc1 [PhU—C2—UPh, 1,1′-(ethane-1,2-diyl)bis(3-phenylurea)] |
|  | Turbid | Turbid | O=C(Nc1ccccc1)Nc1cccc(NC(=O)c2ccccc2)n1 [PhU—Ph—AP, N-(6-(3-phenylureido)pyridin-2-yl)benzamide] |
